Where two headings read alike, the source gives them in different places. Where a SMILES comes first, the peptide text is derived from it. Bridges are numbered along the chain shown (N, C = ends). [ ]: non-standard residue; d: D form. hArg = N=C(N)NCCCC[C@H](N)C(=O)O; Mpa = O=C(O)CCS

For assay [1], the system named is NOD/SCID mice. As to the kind of experiment: Tail-snip bleed model in clopidogrel-treated NOD/SCID mice. In kind it is in vivo, mouse. The settings on record: ~3 times the clinical dose of clopidogrel for 5 days (untreated 9 minutes). The procedure:
The mouse was treated with clopidogrel for 5 days. The mouse was anesthetized, the tail end was snipped off followed by thrombosomes being immediately administered. The time from tail snip to tail stop bleeding was recorded by visual inspection.
NOD/SCID mice were treated with ˜ 3 times the clinical dose of clopidogrel for 5 days then assessed in the tail-snip bleed model. The bleed time (min) was extended to 17.8 minutes with clopidogrel treatment verses untreated at 9 minutes (data not shown).

The subject of assay [2] is platelets. The note with it: cited from earlier work.
The test system of assay [3] is platelets (platelet rich plasma). The assay is described as follows: Transmission light aggregometry, collagen-induced platelet aggregation in PRP. The assay is classed as cell-based, human. On the procedure:
The aggregation of platelets (in platelet rich plasma) was evaluated using transmission light aggregrometry. […] (FIG. 8).
(§1) Platelets will aggregate with collagen and arachidonic acid stimulation. […] The PL chip system on the T-TAS® was used to emulate in vitro platelet binding and aggregation due to the exposure of collagen in the vasculature under shear conditions.
(§2) Plasma samples with platelet or thrombosomes or combination of both are loaded into cuvettes and placed into the aggregometry chambers. The chambers warm the sample and provide constant stirring. The initiation of aggregation can be done by multiple types of […] agents not limited to thrombin, ADP, collagen and any agent known to stimulate platelet aggregation. The samples can also have been taken as ex-vivo, or in-vitro supplemented with inhibitors. The instrument begins the assay by first recording the light transmission previous to stimulation for 2 minutes. The stimulant of interest is then introduced by the technician and the change in light transmission is recorded over time. The increase in light transmission corresponds to increase in platelet aggregation.

For assay [4] the test system is unchanged. As to the kind of experiment: Transmission light aggregometry, arachidonic acid-induced platelet aggregation in PRP. In kind it is cell-based, human.
Description: as §1
as §2, with “The samples can also have been taken as ex-vivo, or in-vitro supplemented with inhibitors.” left out
Platelet rich plasma was taken from subject on 800 mg ibuprofen.

For assay [5], the system named is whole blood. As to the kind of experiment: T-TAS PL chip (collagen only) thrombus formation, whole blood. The assay is classed as cell-based, human. The settings on record: whole blood with 100 and 500 μM aspirin; FIG. 17.
Description: (§3) In the Total Thrombus-formation Analysis System (T-TAS®, FUJIMORI KOGYO CO., LTD), the sample is forced through collagen-coated microchannels using mineral oil. Changes in pressure are used to assess thrombus formation. The Occlusion Start Time is time it takes to reach 10 kPa, and the Occlusion Time=time it takes to each Δ80 kPa using an AR chip (e.g., Zacros Item No, TC0101). According to the manufacturer, an AR chip can be used for analyzing the formation of a mixed white thrombus consisting chiefly of fibrin and activated platelets. It has a flow path (300 μm wide by 50 μm high) coated with collagen and tissue factors and can be used to analyze the clotting function and platelet function. In comparison, a PL chip can be used for analyzing the formation of a platelet thrombus consisting chiefly of activated platelets. A PL chip has a flow path coated with collagen only and can be used to analyze the platelet function.
as §1
Evaluation by T-TAS® Using a PL Chip
PL chips are run similarly to AR chips, but this chip is only coated with collagen alone.

The test system of assay [6] is platelet rich plasma. The assay is described as follows: T-TAS AR chip (collagen and tissue factor) occlusion under shear, platelet rich plasma. In kind it is cell-based, human.
Assay [7] relates to whole blood. The assay is described as follows: T-TAS AR chip occlusion under shear, whole blood. In kind it is cell-based, human. The settings on record: whole blood with 6 μM eptifibatide (whole blood alone 8 minutes); FIG. 9.
Description: as §3
The effect of thrombosomes on shortening clotting times while in the presence of eptifibatide was also studied. The ability of thrombosomes to recover occlusion times was studied on the T-TAS® system. The T-TAS® system measures occlusion time under shear forces with collagen and thromboplastin stimulation. The whole blood profile of occlusion and AUC on the AR T-TAS® chip lengthened and decreased, respectively, with eptifibatide. […]

The subject of assay [8] is platelets (platelet rich plasma). The assay is described as follows: Transmission light aggregometry, ADP-induced platelet aggregation in PRP. The assay is classed as cell-based, human. The note with it: cangrelor 0.5 μM-3.5 μM, 10 μM ADP, FIG. 1.
Description: as §2

The subject of assay [9] is platelet rich plasma. As to the kind of experiment: T-TAS AR chip (collagen and tissue factor) occlusion under shear, platelet rich plasma. The assay is classed as cell-based, human. The settings on record: for area under the curve (AUC): FIG. 3; for time to occlusion: FIG. 4.
Description: as §3
The effect of cangrelor on platelet occlusion under shear was evaluated by T-TAS®.
Evaluation by T-TAS® using an AR chip. AR chips are characterized by a single channel containing collagen and tissue factor; they can be used to analyze clotting and platelet function.

`COC(=O)[C@H](c1ccccc1Cl)N1CCc2sccc2C1` [clopidogrel] returned a bleed time in assay [1] of 17.8 min. In assay [2] (after stopping infusion), the “time to return of platelet function” value is “approximately 1 hour”.
Turning to `CCCSc1nc(N[C@@H]2C[C@H]2c2ccc(F)c(F)c2)c2nnn([C@@H]3C[C@H](OCCO)[C@@H](O)[C@H]3O)c2n1` [ticagrelor], the “time to return of platelet function” value in assay [2] (after the last dosage) was “approximately 72 hours”.
As to `CC(=O)Oc1ccccc1C(=O)O` [aspirin, acetylsalicylic acid], the collagen-induced platelet aggregation entry in [3] (collagen 10 ug/mL, aspirin 100-400 μM, FIG. 16) is recorded as “partially inhibited”. The “arachidonic acid-induced platelet aggregation” value in assay [4] (AA 500 ug/mL, aspirin 100-400 μM, PRP, FIG. 16) is reported as “completely inhibited”. Also, the “platelet binding and aggregation on collagen under shear (PL chip)” value in assay [5] was “largely limited”. Moreover, in assay [6] (PRP taken from a subject on 81 mg/day aspirin, FIGS. 29A, 29B), the “occlusion on T-TAS flow system” value is reported as “failed to occlude”.
In the case of `CCCCS(=O)(=O)N[C@@H](Cc1ccc(OCCCCC2CCNCC2)cc1)C(=O)O` [tirofiban], the occlusion time entry in [6] (PRP treated with 100 ng/mL tirofiban (from 18.43), FIGS. 26A, 26B) is “no occlusion”.
On to `N=C(N)NCCCC[C@@H]1NC(=O)CCSSC[C@@H](C(N)=O)NC(=O)[C@@H]2CCCN2C(=O)[C@H](Cc2c[nH]c3ccccc23)NC(=O)[C@H](CC(=O)O)NC(=O)CNC1=O` [eptifibatide] ([Mpa][hArg]GDWPC-NH2; disulfide 1-7), for which, in assay [3] (collagen 10 μg/mL, all eptifibatide concentrations tested, FIG. 8), the collagen-induced platelet aggregation entry is reported as “completely inhibited”. Besides, the occlusion time in assay [7] is 16 min; in assay [6] (PRP treated with 9 μM eptifibatide (from 18.43), FIGS. 27A, 27B), “over 30 minutes”. Further, in assay [2] (after drug stoppage), the “time for bleeding time to return to normal after drug stoppage” value is at most 1 h.
Turning to `CSCCNc1nc(SCCC(F)(F)F)nc2c1ncn2[C@@H]1O[C@H](COP(=O)(O)OP(=O)(O)C(Cl)(Cl)P(=O)(O)O)[C@@H](O)[C@H]1O` [cangrelor], the “ADP-induced platelet aggregation (integrated aggregation curve)” value in assay [8] is on record as “complete inhibition”. Also, the occlusion time in assay [9] (PRP treated with 100 ng/mL cangrelor and ADP (from 19), FIGS. 25A, 25B) was found to be 26 min. The “platelet adhesion and occlusion on AR chip” value in assay [9] (cangrelor 1 μM combined with ADP 10 μM, PRP, FIG. 2) is “essentially eliminated”. The “platelet occlusion on AR chip” value in assay [9] (cangrelor alone 1 μM, PRP, FIG. 2) is recorded as “did not exhibit inhibition on occlusion”. In addition, the “area under the curve (AUC)” value in assay [9] (cangrelor alone, PRP) is on record as “little effect on AUC value”; in assay [9] (cangrelor combined with ADP stimulation, PRP) it was “dropped close to zero”. The time to occlusion result in [9] (cangrelor alone, PRP) is on record as “little effect on occlusion times”; in [9] (cangrelor plus ADP stimulation, PRP) it was “inhibited occlusion essentially completely”.
As for `CC(C)Cc1ccc(C(C)C(=O)O)cc1` (centres unmarked) [ibuprofen], the “aggregation in response to arachidonic acid” value in assay [4] (PRP from subject on 800 mg ibuprofen, FIG. 31A) is “lack of aggregation”. The “occlusion on T-TAS flow system” value in [6] (PRP from subject on 800 mg ibuprofen, addition of ADP, FIG. 31B) is listed as “abolished occlusion”; in assay [6] (PRP from subject on 800 mg ibuprofen, no ADP, FIG. 31B) it was “demonstrated occlusion”.

These data come from patent US12208122B2, “Methods of treating bleeding in a subject treated with an antiplatelet agent” (Cellphire, Inc., priority 2019, dated 2025).
